# Results as given in patent US20250268903A1, “RXFP1 AGONISTS” (BRISTOL-MYERS SQUIBB COMPANY, priority 2021, published 2025).
# Biological target: T1, human RXFP1 (Homo sapiens, UniProt Q9HBX9)
# T1 construct: expressed in transfected cells
# T1 sequence (Q9HBX9 1-757): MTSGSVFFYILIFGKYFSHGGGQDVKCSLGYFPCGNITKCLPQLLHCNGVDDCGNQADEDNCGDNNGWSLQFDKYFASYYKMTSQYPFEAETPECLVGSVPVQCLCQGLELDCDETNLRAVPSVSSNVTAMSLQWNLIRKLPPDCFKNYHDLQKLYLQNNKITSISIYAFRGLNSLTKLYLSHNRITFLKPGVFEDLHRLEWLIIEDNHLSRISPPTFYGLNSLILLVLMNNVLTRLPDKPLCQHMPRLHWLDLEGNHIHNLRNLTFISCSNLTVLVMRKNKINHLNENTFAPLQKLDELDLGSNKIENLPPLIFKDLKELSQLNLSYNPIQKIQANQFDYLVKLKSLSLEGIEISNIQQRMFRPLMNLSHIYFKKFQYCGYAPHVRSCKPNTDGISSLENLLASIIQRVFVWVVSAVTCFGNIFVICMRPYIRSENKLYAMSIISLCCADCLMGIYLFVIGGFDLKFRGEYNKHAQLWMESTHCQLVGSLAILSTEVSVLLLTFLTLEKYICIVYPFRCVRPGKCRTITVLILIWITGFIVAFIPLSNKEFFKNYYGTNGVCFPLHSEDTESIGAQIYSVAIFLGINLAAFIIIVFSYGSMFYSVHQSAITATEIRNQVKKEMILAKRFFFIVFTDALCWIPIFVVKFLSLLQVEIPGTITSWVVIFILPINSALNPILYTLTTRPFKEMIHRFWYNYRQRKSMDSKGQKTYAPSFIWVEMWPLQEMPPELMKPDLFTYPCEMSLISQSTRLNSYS
# Assay: hRXFP1 HEK293 cAMP assay (HTRF)
# Type: cell-based
# Details: HEK293 cells stably expressing human RXFP1, 30 min at room temperature
# How it was run: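 HEK293 cells stably expressing human RXFP1 were suspended in HBSS (Ca/Mg) with 20 mM HEPES, 0.05% BSA and 0.5 mM IBMX, then treated with compounds (0.010 nM–50 μM, 2% DMSO final) for 30 min at room temperature. Intracellular cAMP was measured by HTRF, and potency was derived from 4-parameter logistic fits.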
row,EC50 [nM],Compound
1,121,COc1ccc(COCC2CC3(C2)OCCO3)cc1C(=O)N[C@H]1[C@@H](C(=O)Nc2ccc(F)c(C(F)(F)F)c2)[C@H]2CC[C@@H]1/C2=C\C1CC1 [Example 286]
2,1290,"COc1ccc(COC[C@@H]2C[C@@H]2C(=O)OCc2ccccc2)cc1C(=O)N[C@H]1[C@@H](C(=O)Nc2ccc(F)c(C(F)(F)F)c2)[C@H]2CC[C@@H]1/C2=C\C1CC1 [Example 287, benzyl (1S, 2R)-2-{[(3-{[(1R,3S,4R,7Z)-7-(cyclopropylmethylidene)-3-{[4-fluoro-3-(trifluoromethyl)phenyl]carbamoyl}bicyclo[2.2.1]heptan-2-yl]carbamoyl}-4-methoxyphenyl)methoxy]methyl} cyclopropane-1-carboxylate]"
3,58.7,"COc1ccc(COC2CCOCC2)cc1C(=O)N[C@H]1[C@@H](C(=O)Nc2ccc(F)c(C(F)(F)F)c2)[C@H]2CC[C@@H]1/C2=C\C1CC1 [Example 288, (1R,2S,3R,4R,7Z)-7-(cyclopropyl-methylidene)-N-[4-fluoro-3-(trifluoromethyl)phenyl]-3-{2-methoxy-5-[(oxan-4-yloxy)methyl]benzamido} bicyclo[2.2.1] heptane-2-carboxamide]"

# Continued, compound first:
row,Compound,EC50 [nM]
1,"COc1ccc(C[C@H]2C[C@H](O)C2)cc1C(=O)N[C@H]1[C@@H](C(=O)Nc2ccc(F)c(C(F)(F)F)c2)[C@H]2CC[C@@H]1/C2=C\C(F)(F)F [Example 278, (1R,2S,3R,4R,7Z)-N-[4-fluoro-3-(trifluoromethyl)phenyl]-3-(2-methoxy-5-{[(1r,3s)-3-hydroxycyclobutyl]methyl}benzamido)-7-(2,2,2-trifluoroethylidene) bicyclo[2.2.1]heptane-2-carboxamide]",32
2,"COc1ccc(C[C@H]2C[C@H](O)C2)cc1C(=O)N[C@H]1[C@@H](C(=O)Nc2ccc(F)c(C(F)(F)F)c2)[C@H]2CC[C@@H]1/C2=C\C(F)(F)F [Example 279, (1R,2S,3R,4R,7Z)-N-[4-fluoro-3-(trifluoromethyl)phenyl]-3-(2-methoxy-5-{[(1r,3s)-3-hydroxycyclobutyl]methyl}benzamido)-7-(2,2,2-trifluoroethylidene) bicyclo[2.2.1]heptane-2-carboxamide]",18.3
3,"COc1ccc(/C(=C/CO)C(F)(F)F)cc1C(=O)N[C@H]1[C@@H](C(=O)Nc2ccc(F)c(C(F)(F)F)c2)[C@H]2CC[C@@H]1/C2=C\C1CC1 [Example 282, (1R,2S,3R,4R,Z)-7-(cyclopropylmethylene)-N-(4-fluoro-3-(trifluoromethyl)phenyl)-3-(2-methoxy-5-((Z)-1,1,1-trifluoro-4-hydroxybut-2-en-2-yl)benzamido) bicyclo[2.2.1]heptane-2-carboxamide]",281
4,"COc1ccc(COCC2CC(F)(F)C2)cc1C(=O)N[C@H]1[C@@H](C(=O)Nc2ccc(F)c(C(F)(F)F)c2)[C@H]2CC[C@@H]1/C2=C\C1CC1 [Example 283, (1R,2S,3R,4R,7Z)-7-(cyclopropyl-methylidene)-3-(5-{[(3,3-difluorocyclobutyl)methoxy]methyl}-2-methoxybenzamido)-N-[4-fluoro-3-(trifluoromethyl)phenyl] bicyclo[2.2.1] heptane-2-carboxamide]",110
5,"COc1ccc(COCC2COC2)cc1C(=O)N[C@H]1[C@@H](C(=O)Nc2ccc(F)c(C(F)(F)F)c2)[C@H]2CC[C@@H]1/C2=C\C(F)(F)F [Example 284, (1R,2S,3R,4R,7Z)-N-[4-fluoro-3-(trifluoromethyl)phenyl]-3-(2-methoxy-5-{[(oxetan-3-yl)methoxy]methyl}benzamido)-7-(2,2,2-trifluoroethylidene) bicyclo[2.2.1] heptane-2-carboxamide]",161
6,"COc1ccc(COC2CC=CC2)cc1C(=O)N[C@H]1[C@@H](C(=O)Nc2ccc(F)c(C(F)(F)F)c2)[C@H]2CC[C@@H]1/C2=C\C1CC1 [Example 285, (1R,2S,3R,4R,7Z)-3-{5-[(cyclopent-3-en-1-yloxy)methyl]-2-methoxybenzamido}-(cyclopropylmethyl-idene)-N-[4-fluoro-3-(trifluoromethyl)phenyl]bicyclo [2.2.1]heptane-2-carboxamide]",226
